Experiments:
Assay in all cases: relative viability (nuclei count vs DMSO), 5 days (fraction); higher = more cells survive
[1] = compound: C/C(=N\NC(=S)N1CCC1)/C2=CC=CC=N2 + C[C@@H](Oc1cc(-c2cnn(C3CCNCC3)c2)cnc1N)c1c(Cl)ccc(F)c1Cl [Crizotinib] (partner 1 µM)
Procedure, shortened: (§1)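 The day after seeding in 1536-well plates, lung cancer cell lines were treated by pin tool with a single drug, or with a fixed anchor-drug dose together with five library-drug doses (not always all listed) in √10 steps. After 5 days, a combined fix-and-stain solution (final 0.05% Triton X-100, 1% formaldehyde, 1 ug/ml Hoechst) was added. Nuclei counted on 4× images gave relative viability as treated counts over vehicle counts, reported as the median of duplicate plates.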

[2] = compound: C/C(=N\NC(=S)N1CCC1)/C2=CC=CC=N2 + COc1cccc2cc(-c3nc([C@H]4CC[C@H](C(=O)O)CC4)n4ncnc(N)c34)[nH]c12 [OSI-027] (partner 0.5 µM)
Procedure, shortened: as §1

[3] = compound: C/C(=N\NC(=S)N1CCC1)/C2=CC=CC=N2 + C[C@]1(O)C[C@@H](c2nc(-c3ccc4ccc(-c5ccccc5)nc4c3)c3c(N)nccn32)C1 [Linsitinib] (partner 1 µM)
Procedure, shortened: as §1

[4] = compound: C/C(=N\NC(=S)N1CCC1)/C2=CC=CC=N2 + Cc1cc(Nc2cc(N3CCN(C)CC3)nc(Sc3ccc(NC(=O)C4CC4)cc3)n2)n[nH]1 [Tozasertib] (partner 0.1 µM)
Procedure, shortened: as §1

Cell Line	relative viability ([1]; first compound 0.05 µM)	relative viability ([1]; first compound 0.1581 µM)	relative viability ([1]; first compound 0.5 µM)	relative viability ([1]; first compound 1.581 µM)	relative viability ([1]; first compound 5 µM)	relative viability ([2]; first compound 0.05 µM)	relative viability ([2]; first compound 0.1581 µM)	relative viability ([2]; first compound 0.5 µM)	relative viability ([2]; first compound 1.581 µM)	relative viability ([2]; first compound 5 µM)	relative viability ([3]; first compound 0.05 µM)	relative viability ([3]; first compound 0.1581 µM)	relative viability ([3]; first compound 0.5 µM)	relative viability ([3]; first compound 1.581 µM)	relative viability ([3]; first compound 5 µM)	relative viability ([4]; first compound 0.05 µM)	relative viability ([4]; first compound 0.1581 µM)	relative viability ([4]; first compound 0.5 µM)	relative viability ([4]; first compound 1.581 µM)	relative viability ([4]; first compound 5 µM)
NCI-H2009	0.112	0.131	0.124	0.149	0.0903	0.0946	0.153	0.17	0.129	0.12	0.139	0.163	0.154	0.165	0.138	0.103	0.148	0.143	0.183	0.149
NCI-H1651	0.148	0.132	0.129	0.112	0.126	0.152	0.165	0.13	0.0837	0.093	0.131	0.126	0.122	0.0894	0.0655	0.136	0.114	0.108	0.0885	0.0771
LCLC-103H	0.838	0.917	0.321	0.335	0.3	0.178	0.22	0.217	0.2	0.19	0.389	0.99	0.262	0.309	0.238	0.244	0.175	0.202	0.133	0.165
NCI-H1666	0.204	0.221	0.216	0.195	0.207	0.396	0.41	0.383	0.354	0.358	0.213	0.244	0.231	0.22	0.231	0.35	0.33	0.301	0.3	0.305
NCI-H1734	0.202	0.175	0.156	0.118	0.121	0.167	0.163	0.179	0.116	0.118	0.141	0.183	0.16	0.142	0.131	0.135	0.15	0.152	0.116	0.121
EPLC-272H	0.0969	0.187	0.121	0.126	0.171	0.159	0.13	0.138	0.103	0.112	0.16	0.424	0.173	0.149	0.16	0.0738	0.0936	0.118	0.0848	0.114
NCI-H2023	0.1	0.0841	0.08	0.0545	0.0727	0.0569	0.0687	0.0687	0.0508	0.0603	0.1	0.0863	0.0724	0.0807	0.0886	0.063	0.0672	0.0602	0.0657	0.0603
BEN	0.193	0.182	0.244	0.177	0.169	0.206	0.142	0.166	0.183	0.202	0.168	0.171	0.167	0.174	0.189	0.334	0.354	0.336	0.352	0.397
